From patent publication US20240216464A1, “IL1RA DERIVED PEPTIDES FOR TREATMENT OF DIABETIC NEPHROPATHY” (SERODUS APS, priority 2021, published 2024)
“Also recorded” adds a separate entry of the source. Ends that are not written are not given here.

Columns and labels:
[1] = system: Renin AAV Uni-nephrectomized db/db (Renin AAV UNx) mice; assay: Renin AAV uni-nephrectomized db/db mouse model of diabetic nephropathy, 77 days treatment; assay type: in vivo
Method: 56 female mice (BKS.Cg-Dock7m+/+ Lepradb/db BLKS, 5 weeks of age) were transferred to the Gubra Research animal unit. The animals were group housed until uni-nephrectomies, then single housed. Throughout the habituation and study period the animals were in a light-, temperature- and humidity-controlled room with free access to food and water. All animal experiments were conducted in accordance with Gubra bioethical guidelines, which are fully compliant to internationally accepted principles for the care and use of laboratory animals.
Animals were terminated on day 77; blood was taken for later analysis, body weight was recorded, and spot urine was collected.
SER140 was provided by Phlogo ApS, Copenhagen, Denmark (10 mg/ml miliQ water diluted to the different dose formulations). SER140 is a dendrimer composed of four monomeric peptides each with the sequence SGRKSSKMQA (SEQ ID NO:1), and coupled to a lysine backbone. Vehicle was miliQ:PBS 1:5.
After one week of acclimatization the mice received an IV injection of Renin adenosin-associated virus (AAV). […]
All blood samples were taken from the mice tail in heparinized tubes, plasma was separated and stored at minus 80 C until analysis. Non-fasting BG (blood glucose) was measured using BIOSEN c-line glucose meter (EKF-diagnostics, Germany), blood for HbA1c analysis was immediately suspended in Hemolyzing Reagent and stored until analysis using autoanalyzer Cobas C-111 with commercial kit (Roche Diagnostics, Germany), plasma urea using commercial kits (Roche Diagnostics).
Urine samples were stored at minus 80 C until analysis. Urine for measurement of albumin and creatinine were centrifuged at 2000 g for 2 min prior to analysis Urine albumin was measure using a commercial ELISA kit (Bethyl Laboratories, Inc.), according to the manufacturer's instructions, and urine creatinine was measured using a commercial kit (Roche Diagnostics) on the Cobas c 501 autoanalyzer, according to the manufacturer's instructions. Urinary KIM-1 was measured using a commercial ELISA kit (R&D Systems), according to the manufacturer's instructions.

IL-1R1 = target: T1, IL-1R1 (Homo sapiens, UniProt P14778); conditions: cited from earlier work
T1 sequence (P14778 18-569): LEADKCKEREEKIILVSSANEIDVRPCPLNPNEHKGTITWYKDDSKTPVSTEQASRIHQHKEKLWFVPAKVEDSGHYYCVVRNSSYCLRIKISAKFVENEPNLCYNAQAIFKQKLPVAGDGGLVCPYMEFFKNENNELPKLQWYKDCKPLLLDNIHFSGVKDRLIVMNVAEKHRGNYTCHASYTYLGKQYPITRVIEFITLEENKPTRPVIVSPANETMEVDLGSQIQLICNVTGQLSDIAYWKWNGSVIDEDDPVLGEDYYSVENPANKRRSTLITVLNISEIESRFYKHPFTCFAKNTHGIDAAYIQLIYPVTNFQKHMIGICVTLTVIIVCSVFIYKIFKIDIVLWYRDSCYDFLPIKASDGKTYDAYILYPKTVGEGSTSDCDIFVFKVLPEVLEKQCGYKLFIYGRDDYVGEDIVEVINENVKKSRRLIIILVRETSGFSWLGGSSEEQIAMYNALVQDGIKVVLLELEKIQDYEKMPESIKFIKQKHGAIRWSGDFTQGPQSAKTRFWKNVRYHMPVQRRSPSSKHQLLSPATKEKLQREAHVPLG

macrophages = conditions: downstream of IL-1 receptor activation; cited from earlier work

Substance	urinary albumin corrected for creatinine (ACR) ([1]; spot urine, day 77, 3, 10 and 20 mg/kg SER140 subcutaneously once daily vs vehicle, FIG. 1 (medians))	urinary KIM-1 corrected for creatinine (KIM-1/CR) ([1]; spot urine, day 77, 3, 10 and 20 mg/kg SER140 subcutaneously once daily vs vehicle, FIG. 2 (means))	HbA1c ([1]; vehicle vs SER140 treatment)	receptor binding of IL-1p (IL-1R1)	macrophages liberation / secretion of TNFα (macrophages)
SER140: dendrimer composed of four monomeric peptides each with the sequence SGRKSSKMQA (SEQ ID NO:1), coupled to a lysine backbone (also: tetrameric dendrimer: four copies coupled to a lysine backbone)	decreased; also recorded: significantly reduced	decreased; also recorded: significantly reduced	no changes	inhibit	reduce
SGRKSSKMQA (Variant of fragment of IL1RA) [SEQ ID NO:1, 10-amino acid peptide derived from IL1RA]	–	–	–	–	inhibit
